Measured values from PubChem BioAssay (NCI).
Several values for one entry are separate records, joined by “and”; a condition that tells them apart may be missing. Equal values may be shown once.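 48-hour exposure; five concentrations; linearly interpolated endpoints. GI50 is the concentration that inhibits growth by half. Definition used: TGI = concentration required for complete inhibition of growth.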

Legend:
Test in all cases: NCI tumour cell line growth inhibition, 48 h
ACHN renal = system: ACHN renal
NCI/ADR-RES ovarian = system: NCI/ADR-RES ovarian
PC-3 prostate = system: PC-3 prostate
MALME-3M melanoma = system: MALME-3M melanoma
SK-MEL-2 melanoma = system: SK-MEL-2 melanoma
P388 leukemia = system: P388 leukemia
CAKI-1 renal = system: CAKI-1 renal
UO-31 renal = system: UO-31 renal
HL-60(TB) leukemia = system: HL-60(TB) leukemia
HCT-116 colon = system: HCT-116 colon
RXF 393 renal = system: RXF 393 renal
SR leukemia = system: SR leukemia
SK-MEL-28 melanoma = system: SK-MEL-28 melanoma
BT-549 breast = system: BT-549 breast
UACC-62 melanoma = system: UACC-62 melanoma
OVCAR-3 ovarian = system: OVCAR-3 ovarian
SNB-19 CNS = system: SNB-19 CNS
MDA-MB-231 breast = system: MDA-MB-231 breast
M14 melanoma = system: M14 melanoma
SN12C renal = system: SN12C renal
786-0 renal = system: 786-0 renal
DU-145 prostate = system: DU-145 prostate
MOLT-4 leukemia = system: MOLT-4 leukemia
EKVX NSCLC = system: EKVX NSCLC
SF-539 CNS = system: SF-539 CNS
OVCAR-5 ovarian = system: OVCAR-5 ovarian
KM20L2 colon = system: KM20L2 colon
DLD-1 colon = system: DLD-1 colon
A498 renal = system: A498 renal
SN12K1 renal = system: SN12K1 renal
OVCAR-4 ovarian = system: OVCAR-4 ovarian
T-47D breast = system: T-47D breast
M19-MEL melanoma = system: M19-MEL melanoma
NCI-H460 lung = system: NCI-H460 lung
SF-295 CNS = system: SF-295 CNS
COLO 205 colon = system: COLO 205 colon
SF-268 CNS = system: SF-268 CNS
SNB-78 CNS = system: SNB-78 CNS
HS 578T breast = system: HS 578T breast
SK-MEL-5 melanoma = system: SK-MEL-5 melanoma
HOP-92 NSCLC = system: HOP-92 NSCLC
HCC-2998 colon = system: HCC-2998 colon
DMS 273 small cell lung = system: DMS 273 small cell lung
P388/ADR leukemia = system: P388/ADR leukemia
TK-10 renal = system: TK-10 renal
UACC-257 melanoma = system: UACC-257 melanoma
MDA-MB-435 = system: MDA-MB-435
SNB-75 CNS = system: SNB-75 CNS
LOX IMVI melanoma = system: LOX IMVI melanoma
KM12 colon = system: KM12 colon
A549 NSCLC = system: A549 NSCLC
DMS 114 small cell lung = system: DMS 114 small cell lung
RPMI-8226 leukemia = system: RPMI-8226 leukemia
LXFL 529 NSCLC = system: LXFL 529 NSCLC
SK-OV-3 ovarian = system: SK-OV-3 ovarian
IGROV1 ovarian = system: IGROV1 ovarian
MDA-N = system: MDA-N
HT29 colon = system: HT29 colon
HCT-15 colon = system: HCT-15 colon
HOP-18 NSCLC = system: HOP-18 NSCLC
XF 498 CNS = system: XF 498 CNS
MCF7 breast = system: MCF7 breast
SW-620 colon = system: SW-620 colon
OVCAR-8 ovarian = system: OVCAR-8 ovarian

CC1OC(O[C@@H]2C=C3CC[C@@H]4[C@H](CC[C@]5(C)[C@@H](c6ccc(=O)oc6)CC[C@]45O)[C@@]3(C)CC2)C(O)C(O)C1O (stereo partly drawn)
GI50 (ACHN renal): 0.00478 µM
TGI (ACHN renal): 0.003 µM and 0.000431 µM
TGI (NCI/ADR-RES ovarian): 0.003 µM and 0.000304 µM
TGI (PC-3 prostate): 0.00558 µM
TGI (MALME-3M melanoma): 0.00238 µM and 0.00139 µM
TGI (SK-MEL-2 melanoma): 0.0243 µM
TGI (P388 leukemia): > 74.8 µM
TGI (CAKI-1 renal): 0.000992 µM
TGI (UO-31 renal): 0.00205 µM
GI50 (HL-60(TB) leukemia): 0.0015 µM and 0.00592 µM
TGI (HCT-116 colon): 0.0017 µM
GI50 (RXF 393 renal): 0.00112 µM and 0.00894 µM
TGI (RXF 393 renal): 0.00199 µM
TGI (SR leukemia): 0.00115 µM
GI50 (SK-MEL-28 melanoma): 0.00281 µM
GI50 (BT-549 breast): 0.00615 µM
GI50 (UACC-62 melanoma): 0.00216 µM
TGI (UACC-62 melanoma): 0.003 µM
TGI (OVCAR-3 ovarian): 0.00262 µM and 0.000359 µM
TGI (SNB-19 CNS): 0.0198 µM and 0.0319 µM
GI50 (MDA-MB-231 breast): 0.000383 µM
TGI (MDA-MB-231 breast): 0.0136 µM
GI50 (M14 melanoma): 0.0885 nM
TGI (M14 melanoma): 0.0124 µM
TGI (SN12C renal): 0.003 µM and 0.0189 µM
GI50 (786-0 renal): 0.0706 nM
TGI (DU-145 prostate): 0.0153 µM
TGI (MOLT-4 leukemia): 0.00127 µM
TGI (EKVX NSCLC): 0.003 µM and 0.00108 µM
TGI (SF-539 CNS): 0.000193 µM
TGI (OVCAR-5 ovarian): 0.0115 µM and 0.0318 µM
GI50 (KM20L2 colon): 0.00131 µM
GI50 (DLD-1 colon): 0.000621 µM
TGI (DLD-1 colon): 0.003 µM
GI50 (A498 renal): 0.00127 µM
GI50 (SN12K1 renal): 0.000941 µM
TGI (SN12K1 renal): 0.003 µM
TGI (OVCAR-4 ovarian): 0.00224 µM and 0.00365 µM
GI50 (T-47D breast): 0.000846 µM
GI50 (M19-MEL melanoma): 0.00173 µM
TGI (NCI-H460 lung): 0.003 µM and 0.00049 µM
TGI (SF-295 CNS): 0.003 µM and 0.000407 µM
TGI (COLO 205 colon): 0.0208 µM and 0.0477 µM
TGI (SF-268 CNS): 0.00353 µM
GI50 (SNB-78 CNS): 0.000596 µM
TGI (SNB-78 CNS): 0.003 µM
GI50 (HS 578T breast): 0.00326 µM
TGI (HS 578T breast): 0.003 µM
TGI (SK-MEL-5 melanoma): 0.003 µM and 0.0122 µM
TGI (HOP-92 NSCLC): 0.003 µM and 0.000676 µM
GI50 (HCC-2998 colon): 0.00159 µM
TGI (HCC-2998 colon): 0.003 µM
GI50 (DMS 273 small cell lung): 0.000892 µM
TGI (DMS 273 small cell lung): 0.003 µM
TGI (P388/ADR leukemia): 159 µM
TGI (TK-10 renal): 0.00939 µM and 0.006 µM
TGI (UACC-257 melanoma): 0.0197 µM and 0.04 µM
GI50 (MDA-MB-435): 0.000482 µM
TGI (MDA-MB-435): 0.013 µM
TGI (SNB-75 CNS): 0.003 µM

COc1cc([C@@H]2c3cc4c(cc3[C@@H](OC3OC5COC(C)OC5C(O)C3O)[C@H]3COC(=O)[C@H]23)OCO4)cc(OC)c1O (stereo partly drawn)
TGI (NCI/ADR-RES ovarian): 178 µM and 500 µM and 650 µM
GI50 (PC-3 prostate): 12.9 µM and 7.68 µM
TGI (MALME-3M melanoma): 72 µM [middle of 4 runs]
TGI (LOX IMVI melanoma): > 81.1 µM and 11.6 µM and 42.9 µM
TGI (KM12 colon): 27.1 µM and 23.9 µM and 92.2 µM
TGI (A549 NSCLC): 61.4 µM and 108 µM
TGI (P388 leukemia): 9.88 µM
TGI (CAKI-1 renal): 31.4 µM and 77.1 µM and 49.2 µM
TGI (UO-31 renal): 110 µM and 89.7 µM and 175 µM
TGI (HCT-116 colon): 25.8 µM and 90.4 µM and 130 µM
TGI (DMS 114 small cell lung): 24.6 µM and 66.8 µM
GI50 (RPMI-8226 leukemia): 14.8 µM and 2.41 µM
TGI (RPMI-8226 leukemia): > 71.7 µM and 68 µM
TGI (LXFL 529 NSCLC): 218 µM
TGI (SR leukemia): 84.8 µM and 26.1 µM and 13.3 µM
TGI (SK-MEL-28 melanoma): 125 µM and 363 µM and 198 µM
GI50 (BT-549 breast): 1.83 µM
TGI (BT-549 breast): 41.2 µM and 35 µM and 6.05 µM
TGI (SNB-19 CNS): 118 µM and 500 µM and 171 µM
GI50 (MDA-MB-231 breast): 7.49 µM and 5.82 µM
TGI (MDA-MB-231 breast): > 35 µM and 34.4 µM and 8.11 µM
TGI (786-0 renal): 43.3 µM and 28.1 µM and 9.35 µM
GI50 (DU-145 prostate): 2.3 µM and 1.67 µM
TGI (EKVX NSCLC): 149 µM and 500 µM and 183 µM
TGI (SK-OV-3 ovarian): 62.3 µM and 500 µM and 120 µM
TGI (OVCAR-5 ovarian): 64.2 µM and 121 µM and 169 µM
TGI (IGROV1 ovarian): 67.8 µM and 159 µM and 157 µM
TGI (KM20L2 colon): 133 µM and 225 µM
GI50 (MDA-N): 18.6 µM
TGI (MDA-N): 4.36 µM
TGI (A498 renal): 59.9 µM and 12 µM and 55.4 µM
TGI (SN12K1 renal): 66.6 µM
TGI (OVCAR-4 ovarian): 124 µM and 500 µM and 292 µM
TGI (HT29 colon): 79.8 µM and 500 µM and 125 µM
GI50 (T-47D breast): 0.516 µM
TGI (T-47D breast): 5.18 µM
TGI (M19-MEL melanoma): 50.3 µM and 332 µM
TGI (NCI-H460 lung): 57 µM and 9.96 µM and 25.3 µM
TGI (HCT-15 colon): 285 µM and 169 µM
TGI (HOP-18 NSCLC): 121 µM and 232 µM
TGI (SNB-78 CNS): 154 µM and 604 µM
TGI (XF 498 CNS): 73.6 µM and 71.1 µM
TGI (MCF7 breast): 103 µM and 500 µM and 432 µM
GI50 (HS 578T breast): 2.86 µM and 5.72 µM
TGI (SK-MEL-5 melanoma): 47.2 µM and 10.8 µM and 32.5 µM
TGI (HOP-92 NSCLC): 37.9 µM and 114 µM
TGI (SW-620 colon): 54.6 µM and 159 µM
GI50 (DMS 273 small cell lung): 58.8 µM
TGI (DMS 273 small cell lung): 32.9 µM
TGI (OVCAR-8 ovarian): 117 µM and 500 µM and 156 µM
TGI (P388/ADR leukemia): 411 µM
TGI (TK-10 renal): > 84.4 µM and 48.8 µM and 32 µM
TGI (MDA-MB-435): 19 µM and 50 µM
